Literature values, collected in patent US9155796B2, “Hydrogels with covalently linked polypeptides” (SUSAVION BIOSCIENCES, INC., priority 2012, dated 2015).

System: peripheral blood mononuclear cells (PBMCs)
Settings: PBMC cultures; within 4 hours

Row | Substance | increased PDGF secretion
1 | (NQHTPR-PEG2-)4-Lys2-Lys-PEG2-Cys[—CH2CH(Me): CH2]—NH2 (not fully specified; tetravalent Lys dendrimer, PEG2 linkers, modified Cys amide; Therapeutic peptide) [SV6D] | two- to four-fold
2 | (WNSTL-PEG2-)4-Lys2-Lys-PEG2-Cys[CH2CH(Me): CH2]—NH2 (not fully specified; tetravalent Lys dendrimer, PEG2 linkers, modified Cys amide; Therapeutic peptide) [SVH1B] | two- to four-fold
3 | (VSNQH-PEG2-)4-Lys2-Lys-PEG2-Cys[—CH2CH(Me): CH2]—NH2 (not fully specified; tetravalent Lys dendrimer, PEG2 linkers, modified Cys amide; Therapeutic peptide) [SVD2] | two- to four-fold
4 | (VQATQS-PEG2-)4-Lys2-Lys-PEG2-Cys[—CH2CH(Me): CH2]—NH2 (not fully specified; tetravalent Lys dendrimer, PEG2 linkers, modified Cys amide; Therapeutic peptide) [SVC1] | two- to four-fold
